The NIST ThermoML archive (doi:10.1021/je800242n)
Several values for one entry are separate records, joined by “and”; a condition that tells them apart may be missing. Identical values can stand only once.

Details: Crystal

[F][Cd][F] [cadmium difluoride]
Details | vapor or sublimation pressure
962 K | 1.26e-05 kPa
968 K | 1.35e-05 kPa
973 K | 1.58e-05 kPa
977 K | 2e-05 kPa
978 K | 2.51e-05 kPa
983 K | 2.51e-05 kPa
984 K | 2.69e-05 kPa
988 K | 3.39e-05 kPa
992 K | 3.39e-05 kPa
993 K | 3.47e-05 kPa
1000 K | 5.01e-05 kPa
1001 K | 4.68e-05 kPa
1002 K | 4.57e-05 kPa
1003 K | 5.75e-05 kPa
1004 K | 5.01e-05 kPa
1009 K | 6.76e-05 kPa
1012 K | 7.94e-05 kPa
1013 K | 6.92e-05 kPa and 6.76e-05 kPa and 7.59e-05 kPa
1014 K | 5.75e-05 kPa
1016 K | 6.76e-05 kPa
1017 K | 5.75e-05 kPa and 9.12e-05 kPa
1018 K | 8.51e-05 kPa
1021 K | 0.000102 kPa
1022 K | 8.71e-05 kPa and 0.000115 kPa
1025 K | 6.76e-05 kPa and 0.000107 kPa
1026 K | 7.94e-05 kPa
1027 K | 9.12e-05 kPa
1028 K | 0.000117 kPa
1030 K | 0.000126 kPa
1031 K | 0.000135 kPa
1032 K | 9.12e-05 kPa and 0.000102 kPa and 0.00012 kPa
1033 K | 9.12e-05 kPa and 0.000158 kPa
1036 K | 0.000102 kPa
1038 K | 0.000115 kPa and 0.000162 kPa
1040 K | 0.000135 kPa and 0.000186 kPa
1042 K | 0.000162 kPa and 0.000182 kPa
1043 K | 0.000186 kPa [middle of 4 runs]
1046 K | 0.000138 kPa and 0.000158 kPa
1048 K | 0.000158 kPa
1049 K | 0.000229 kPa
1050 K | 0.000182 kPa
1051 K | 0.000214 kPa
1052 K | 0.000251 kPa and 0.000295 kPa
1053 K | 0.000251 kPa
1054 K | 0.000204 kPa and 0.000263 kPa
1055 K | 0.000182 kPa and 0.000204 kPa
1057 K | 0.000204 kPa
1059 K | 0.000229 kPa
1060 K | 0.000275 kPa
1061 K | 0.000309 kPa
1062 K | 0.000389 kPa
1064 K | 0.000275 kPa and 0.000339 kPa
1066 K | 0.000275 kPa
1068 K | 0.000295 kPa and 0.000316 kPa and 0.000275 kPa
1069 K | 0.000407 kPa and 0.000389 kPa
1070 K | 0.000355 kPa
1071 K | 0.000339 kPa
1073 K | 0.000398 kPa
1074 K | 0.000525 kPa
1075 K | 0.000389 kPa and 0.000479 kPa
1077 K | 0.000363 kPa
1078 K | 0.000407 kPa
1079 K | 0.000457 kPa [middle of 4 runs]
1080 K | 0.000501 kPa
1082 K | 0.000457 kPa
1084 K | 0.000537 kPa and 0.000676 kPa
1086 K | 0.000676 kPa
1087 K | 0.000501 kPa
1088 K | 0.00055 kPa
1089 K | 0.000457 kPa and 0.000589 kPa
1090 K | 0.00055 kPa
1091 K | 0.000708 kPa
1093 K | 0.000617 kPa
1095 K | 0.000933 kPa
1096 K | 0.000631 kPa
1097 K | 0.000631 kPa and 0.000724 kPa and 0.000912 kPa
1098 K | 0.000724 kPa and 0.000575 kPa and 0.000741 kPa
1101 K | 0.000912 kPa
1102 K | 0.000724 kPa
1103 K | 0.000933 kPa
1104 K | 0.000813 kPa
1105 K | 0.000871 kPa and 0.0012 kPa
1107 K | 0.000912 kPa and 0.000813 kPa and 0.000676 kPa
1108 K | 0.0012 kPa
1110 K | 0.00117 kPa
1111 K | 0.00117 kPa
1114 K | 0.001 kPa and 0.0011 kPa and 0.00105 kPa
1115 K | 0.00135 kPa
1116 K | 0.00151 kPa
1117 K | 0.00117 kPa and 0.00102 kPa and 0.00115 kPa
1118 K | 0.0011 kPa and 0.001 kPa and 0.00158 kPa
1120 K | 0.0017 kPa
1121 K | 0.00162 kPa
1123 K | 0.00145 kPa
1124 K | 0.00115 kPa
1125 K | 0.00132 kPa and 0.00138 kPa
1126 K | 0.00129 kPa
1127 K | 0.00145 kPa and 0.00129 kPa and 0.00191 kPa
1129 K | 0.00141 kPa and 0.002 kPa and 0.00195 kPa
1134 K | 0.00174 kPa
1135 K | 0.00195 kPa
1136 K | 0.00178 kPa and 0.00166 kPa
1137 K | 0.00245 kPa
1138 K | 0.00245 kPa
1139 K | 0.00182 kPa
1145 K | 0.00224 kPa
1147 K | 0.00229 kPa
1149 K | 0.00229 kPa

[F][Zn][F] [zinc fluoride]
Details | vapor or sublimation pressure
846 K | 1.2e-05 kPa
852 K | 1.2e-05 kPa
853 K | 1.23e-05 kPa
854 K | 1.78e-05 kPa
859 K | 1.23e-05 kPa
865 K | 2.4e-05 kPa
867 K | 1.82e-05 kPa and 2.4e-05 kPa
871 K | 2.45e-05 kPa
875 K | 2.45e-05 kPa
876 K | 3.55e-05 kPa and 4.79e-05 kPa
880 K | 3.63e-05 kPa and 3.55e-05 kPa
883 K | 4.57e-05 kPa and 3.63e-05 kPa
885 K | 4.57e-05 kPa
886 K | 3.63e-05 kPa
887 K | 4.57e-05 kPa and 6.03e-05 kPa and 4.9e-05 kPa
888 K | 4.57e-05 kPa
889 K | 7.24e-05 kPa
891 K | 6.03e-05 kPa
893 K | 6.17e-05 kPa
895 K | 6.76e-05 kPa and 4.9e-05 kPa
896 K | 6.76e-05 kPa and 6.17e-05 kPa
898 K | 6.76e-05 kPa and 8.32e-05 kPa and 7.41e-05 kPa
900 K | 6.76e-05 kPa
902 K | 8.51e-05 kPa and 8.32e-05 kPa
903 K | 9.12e-05 kPa and 0.000107 kPa
904 K | 7.41e-05 kPa
905 K | 7.41e-05 kPa
906 K | 9.12e-05 kPa and 0.000107 kPa
909 K | 0.000102 kPa and 9.77e-05 kPa
910 K | 0.00012 kPa
911 K | 0.000115 kPa
912 K | 9.77e-05 kPa
913 K | 0.000138 kPa and 0.000123 kPa
914 K | 0.000155 kPa and 0.00011 kPa
916 K | 0.000158 kPa and 0.000166 kPa
919 K | 0.000158 kPa and 0.000135 kPa
920 K | 0.000166 kPa
921 K | 0.000182 kPa
922 K | 0.000135 kPa
923 K | 0.000204 kPa and 0.000148 kPa
924 K | 0.000204 kPa
925 K | 0.000182 kPa
926 K | 0.000229 kPa
928 K | 0.000204 kPa and 0.000251 kPa
930 K | 0.000251 kPa and 0.000195 kPa
932 K | 0.000263 kPa
933 K | 0.000195 kPa and 0.000275 kPa
934 K | 0.000295 kPa and 0.000257 kPa and 0.000209 kPa
937 K | 0.000316 kPa
938 K | 0.000372 kPa
939 K | 0.000316 kPa
940 K | 0.000339 kPa
941 K | 0.000372 kPa and 0.000282 kPa
942 K | 0.000282 kPa and 0.000355 kPa
943 K | 0.000282 kPa
945 K | 0.000407 kPa
946 K | 0.00038 kPa
948 K | 0.000437 kPa
950 K | 0.000479 kPa and 0.000513 kPa
951 K | 0.000479 kPa and 0.000389 kPa
952 K | 0.000363 kPa and 0.000501 kPa
955 K | 0.000575 kPa
956 K | 0.000513 kPa and 0.000417 kPa
958 K | 0.000575 kPa
959 K | 0.000589 kPa
960 K | 0.000661 kPa
961 K | 0.000661 kPa and 0.000525 kPa
962 K | 0.000692 kPa
963 K | 0.000525 kPa and 0.000692 kPa
965 K | 0.000589 kPa
966 K | 0.000794 kPa and 0.000692 kPa
968 K | 0.000759 kPa
969 K | 0.000851 kPa and 0.000912 kPa
970 K | 0.000871 kPa and 0.000708 kPa
972 K | 0.000912 kPa
973 K | 0.000955 kPa
974 K | 0.000741 kPa
975 K | 0.000912 kPa and 0.000813 kPa
976 K | 0.00107 kPa
978 K | 0.00105 kPa and 0.00123 kPa
979 K | 0.00115 kPa and 0.000933 kPa
980 K | 0.00115 kPa
982 K | 0.0012 kPa
983 K | 0.000977 kPa and 0.00132 kPa
984 K | 0.00105 kPa
986 K | 0.00145 kPa and 0.00126 kPa
988 K | 0.00148 kPa and 0.00158 kPa
989 K | 0.00148 kPa and 0.00138 kPa and 0.00126 kPa
991 K | 0.00158 kPa
993 K | 0.00132 kPa and 0.00135 kPa
994 K | 0.00178 kPa
996 K | 0.00191 kPa and 0.00195 kPa
997 K | 0.00166 kPa
998 K | 0.00182 kPa and 0.00214 kPa
999 K | 0.00195 kPa and 0.00166 kPa
1001 K | 0.00209 kPa
1003 K | 0.00178 kPa
1004 K | 0.00174 kPa and 0.00245 kPa
1005 K | 0.00251 kPa
1006 K | 0.00245 kPa
1007 K | 0.00234 kPa
1008 K | 0.00219 kPa
1009 K | 0.00219 kPa and 0.00295 kPa
1010 K | 0.00257 kPa
1011 K | 0.00269 kPa
1013 K | 0.00229 kPa and 0.00316 kPa and 0.00234 kPa
1016 K | 0.00347 kPa
1017 K | 0.00324 kPa and 0.00295 kPa
1019 K | 0.00295 kPa
1020 K | 0.00295 kPa
1021 K | 0.00347 kPa and 0.00339 kPa
1022 K | 0.00398 kPa and 0.00302 kPa
1023 K | 0.00309 kPa
1027 K | 0.00407 kPa and 0.0038 kPa
1031 K | 0.00447 kPa and 0.00457 kPa and 0.00537 kPa
1035 K | 0.00427 kPa
1036 K | 0.00525 kPa
1037 K | 0.0049 kPa
1039 K | 0.00562 kPa
1040 K | 0.00692 kPa
1041 K | 0.00562 kPa
1046 K | 0.00676 kPa and 0.00575 kPa
1047 K | 0.00631 kPa
